Reference: paper PMC9575645 (Signal Transduction and Targeted Therapy, 2022)

Legend:
LLC-PK = assay: Cytotoxicity, MTT assay, LLC-PK; type: cell-based, porcine
Experimental: (§1) The cytotoxic effects of the chemicals and their solvents were tested by the MTT assay,[44] and its procedure is described in Supplementary Information.
(§2) The cytotoxic effects of the chemicals and their solvents used were tested by the MTT assay as described previously.^10 In brief, the chemicals were dissolved in DMSO to a stock concentration of 10 mM, and then freshly serially diluted in serum-free medium before being added to cell culture monolayers. The absorbance was measured using an enzyme-linked immunosorbent assay (ELISA) reader at an optical density (OD) of 570 nm. The percent cell viability was calculated using the following formula, [(ODsample˗ODblank)/(ODcontrol˗ODblank)] × 100%. According to the cell cytotoxicity data, dose-response curves were generated for the calculation of CC50 using GraphPad Prism software version 8.4.2.

[1] = tested on: Species A Rotavirus (NCDV); conditions: for IC50: Species A Rotavirus (NCDV), MA104 cells
palmitic and oleic acids = assay: LC-MS quantification of palmitic and oleic acids in IAV-infected A549 cells; type: cell-based, human; conditions: 20 μM
Experimental: The difference in saturated and unsaturated FFAs between the untreated and the treated cells after infection with IAV or SARS-CoV-2 was determined by GC-FID and LC-MS as previously reported,[11] and detailed procedures are described in Supplementary Information.
The amount of palmitic and oleic acids in the untreated and treated cells after infection with IAV was determined by LC-MS. In brief, A549 cells infected with IAV PR8 strain at an MOI of 0.1 were vehicle-treated, or treated with 20 μM atglistatin or CAY10499 at 12 hpi, or treated with 20 μM atglistatin or CAY10499 and then supplemented individually with 100 μM of PA or OA at 12 hpi, and incubated further for 12 h. Afterward, cells were collected for FFA extraction. 700 μL Chloroform : Methanol (2:1) was added to the freeze cell pellets and vortexed for 1 min. The mixture was sonicated for 5 min and re-vortexed for 1 min. The mixture was centrifuged at 13,000 rpm for 8 min, and the lower organic layer was collected and transferred into a micro-tube. Using vacuum concentrator, the extracts were dried. Finally, the extracts were re-dissolved by methanol and centrifuged at 13,000 rpm for 5 min. The supernatants were transferred into LC-MS vials. […] The standard compounds as well as extracted samples were analyzed in selective ion monitoring (SIM) mode using the ESI source by monitoring the H^- adducts ions. […]

A549 = assay: Cytotoxicity, MTT assay, A549; type: cell-based, human
Experimental: as §1, §2

SARS-CoV-2 S protein = type: cell-based
lipid droplets (LDs) [2] = assay: BODIPY lipid droplet immunofluorescence in SARS-CoV-2-infected Vero E6 cells; type: cell-based, African green monkey; conditions: SARS-CoV-2-infected cells, MOI = 0.1 FFU; 20 µM
Experimental: (§3) To characterize the dynamics of LD formation, apoptotic and necroptotic cells, and virus infectivity, an IFA was performed with the […], MDCK, Caco-2, Vero E6, MA104, MARC-145, LLC-PK, and HRT-18G cells, infected with or without each virus, and treated with vehicles or chemicals at the different time points (Table S3), or transfected with siRNA or scrambled siRNA as described above.^ 16^,27^,28 Briefly, cells were prepared in 8-well chamber slides infected with IAV, SARS-CoV-2, BCoV, PEDV, RVA, PRRSV, or PSaV at an MOI of 1 (IAV), or MOI of 0.1 (SARS-CoV-2, BCoV, PEDV, RVA, PRRSV, or PSaV) and treated with or without chemicals. […] Subsequently, cells were washed thrice with PBS (pH 7.4) and mounted with SlowFade Gold antifade reagent containing 1 × DAPI solution (Molecular Probes) for nucleus staining, observed with a LSM 800 confocal microscope, and analysed using Zen Blue Software 2.6 (Carl Zeiss; Jena, Germany).
(§4) The number and size of intracellular LDs were measured as described previously.^28 Briefly, four images were taken of each sample and converted into a pixel unit, and the data were processed and quantified using Adobe Photoshop CS6. […] The results were expressed as relative values, where the average number and size of pixels of positive color in virus-infected groups were normalized to those of the mock-treated, mock-infected control.

[3] = tested on: Influenza A virus (H1N1) (PR8); conditions: for SI (CC50/IC50) / IC50: Influenza A virus (H1N1) (PR8); for IC50: A549 cells
lipid droplets (LDs) [4] = assay: BODIPY lipid droplet immunofluorescence in IAV-infected A549 cells; type: cell-based, human; conditions: MOI = 1 FFU
Experimental: as §3, §4

| SMILES | CC50 (LLC-PK) | SI (CC50/IC50) [1] | IC50 [1] | levels of PA and OA (LC-MS) (palmitic and oleic acids) | CC50 (A549) | palmitoylation of the SARS-CoV-2 spike (S) protein (SARS-CoV-2 S protein) | intracellular LDs (BODIPY) (lipid droplets (LDs) [2]) | virus replication (genome copy number, infectious progeny) [3] | SI (CC50/IC50) [3] | IC50 [3] | intracellular LDs (BODIPY) (lipid droplets (LDs) [4]) |
| --- | --- | --- | --- | --- | --- | --- | --- | --- | --- | --- | --- |
| CN(C)C(=O)Nc1cccc(-c2ccc(N(C)C)cc2)c1 [Atglistatin] | 224 ± 2.3 µM | 32 | 6.7 ± 0.49 µM | significantly reduced | 206 ± 3 µM | significantly inhibited | Retention of LDs | inhibiting the replication | 251 | 820 ± 80 nM | Retention of LDs |
| COc1nn(-c2ccc(NC(=O)OCc3ccccc3)c(C)c2)c(=O)o1 [CAY10499] | 109 ± 8.1 µM | 5 | 20.9 ± 5.06 µM | significantly reduced | 106 ± 8.9 µM | significantly inhibited | Retention of LDs | inhibiting the replication | 27 | 4130 ± 460 nM | Retention of LDs |
